Data as given in publication PMC9736855, “Discovery of 3-Amino-1H-pyrazole-Based Kinase Inhibitors to Illuminate the Understudied PCTAIRE Family” (International Journal of Molecular Sciences, 2022).

Tests used:
CDK16/Cyclin Y = biological target: T1, CDK16/Cyclin Y (Homo sapiens, UniProt Q00536); assay: NanoBRET; format: cell-based; settings: Figure 7, 11-point dose-response in duplicates; read-out: NanoBRET EC50 ± SEM against CDK16
T1 construct: Full-length kinases were obtained as plasmids cloned in frame with a terminal NanoLuc-fusion; CS1810C178 (CCNY); host or cells: HEK293T
Method: Next, to specifically quantify the outcome of the cellular activity of the compounds, a NanoBRET cellular target engagement assay was performed. The determination of the cellular potency on CDK16 correlated well with the corresponding DSF assay data (Figure S2). […] As mentioned before, the exchange from a methyl ester to an iso-propyl or tert-butyl ester led to a higher stabilization of the kinase in the DSF assay, which correlated with an increase in cellular potency as determined in the NanoBRET assay. […] The number of potential off-targets was low with 1 and 2 kinases with ΔTm >5 °C (Figure 4), highlighting these inhibitors for more comprehensive selectivity studied within the CDK and particular the TAIRE subfamily.
The assay was performed as described previously. In brief: Full-length kinases were obtained as plasmids cloned in frame with a terminal NanoLuc-fusion (Promega, Madison, WI, USA), as specified in table (Table S6). Plasmids were transfected into HEK293T cells using FuGENE HD (Promega, E2312) and proteins were allowed to express for 20h. Serially diluted inhibitor and NanoBRET Kinase Tracer (Promega) at a concentration determined previously as the KD,app (Table S5) were pipetted into white 384-well plates (Greiner 781207) using an Echo acoustic dispenser (Labcyte, San Jose, CA, USA). The corresponding protein-transfected cells were added and reseeded at a density of 2.5 × 10^5 cells/mL after trypsinization and resuspending in Opti-MEM without phenol red (Life Technologies, Carlsbad, CA, USA). The system was allowed to equilibrate for 2 h at 37 °C/5% CO2 prior to BRET measurements. To measure BRET, NanoBRET NanoGlo Substrate + Extracellular NanoLuc Inhibitor (Promega, N2540) was added as per the manufacturer’s protocol, and filtered luminescence was measured on a PHERAstar plate reader (BMG Labtech, Ortenberg, Germany) equipped with a luminescence filter pair (450 nm BP filter (donor) and 610 nm LP filter (acceptor)). Competitive displacement data were then graphed using GraphPad Prism 9 software using a normalized 3-parameter curve fit with the following equation: Y = 100/(1 + 10^(X–LogEC50)).

GSK3B = GSK3B (Homo sapiens, UniProt P49841); assay: DSF; format: binding; design: purchased in-house DSF panel (SGC Frankfurt); settings: 10 μM compound
Description: (§1) To investigate the selectivity profile of the different series, a differential scanning fluorimetry (DSF) assay was used. This assay offers a rapid and sensitive screening method that determines the denaturation temperature of a protein in absence and presence of a compound. This assay format measures the fluorescence of a dye, which depends on the folding state of the protein. The difference between the melting temperature (ΔTm) in the absence and presence of the compound represents the binding strength to the protein.
(§2) Measurements were performed in duplicates.

CDK16 = biological target: T2, CDK16 (Homo sapiens, UniProt Q00536); assay: DSF; format: binding; settings: 10 μM compound
T2 construct: purchased in-house DSF panel (SGC Frankfurt)
Description: as §1, §2

CDK2 = biological target: T3, CDK2 (Homo sapiens, UniProt P24941); assay: DSF; format: binding; settings: 10 μM compound
T3 construct: purchased in-house DSF panel (SGC Frankfurt)
Description: as §1, §2

[1] = system: in-house panel of 89–105 kinases; assay: DSF selectivity screen; format: binding; settings: number of kinases of the DSF panel
Description: To investigate the selectivity profile of the different series, a differential scanning fluorimetry (DSF) assay was used. This assay offers a rapid and sensitive screening method that determines the denaturation temperature of a protein in absence and presence of a compound. This assay format measures the fluorescence of a dye, which depends on the folding state of the protein. The difference between the melting temperature (ΔTm) in the absence and presence of the compound represents the binding strength to the protein. We used an in-house panel of 89–105 kinases to screen all synthesized inhibitors (Tables S1–S3).
as §2

HCT116-FUCCI cells = assay: FUCCI cell cycle assay and viability assessment; format: cell-based; settings: 1, 5, 10 µM (milciclib 1, 10 µM), 24 h
Method: This technology enables the detection of cell cycle states (G1, G2/M, or S phase) on a single cell level. Additionally, a viability assessment, as described by Tjaden et. al., was performed using Hoechst33342 as a nuclear marker. […] At 10 µM of the same compound, the pyknosed nuclei rate was even higher, on average 45% (Figure 9C). An increase in cells including a pyknosed nucleus indicate apoptotic cell death, due to typical morphological changes like DNA condensation. […] Milciclib is a published CDK2 inhibitor and was used as a reference compound [55]. […] At later time points, the G2/M phase arrest was no longer detectable (Table S7). This can be explained due to the increasing amount of apoptotic cells.
To validate the influence of the compounds on the cell cycle, a florescent ubiquitination-based cell cycle indicator (FUCCI) assay was performed as described previously. In Brief, HCT116-FUCCI cells, stably expressing the FUCCI system, introduced by the Sleeping Beauty transposon system, were seeded at a density of 1250 cells per well in a 384 well plate (Cell culture microplate, PS, f-bottom, µClear®, 781091, Greiner, Frickenhausen, Germany) in culture medium (50 µL per well) and stained additionally with 60 nM Hoechst33342 (Thermo Scientific). Fluorescence and cellular shape were measured before and after compound treatment for 72 h every 12 h using the CQ1 high-content confocal microscope (Yokogawa, Tokyo, Japan). Compounds were added directly to the cells at three different concentrations (1 µM, 5 µM and 10 µM). The following parameters were used for image acquisition: Ex 405 nm/Em 447/60 nm, 500ms, 50%; Ex 561 nm/Em 617/73 nm, 100 ms, 40%; Ex 488/Em 525/50 nm, 50 ms, 40%; Ex 640 nm/Em 685/40, 50 ms, 20 %; bright field, 300ms, 100% transmission, one centered field per well, 7 z stacks per well with 55 µm spacing. Analysis of images was performed using the CellPathfinder software (Yokogawa). The cell count was normalized against the cell count of cells treated with 0.1% DMSO. All normal gated cells were further classified in cells containing healthy, fragmented or pyknosed nuclei. […] Error bars show SEM of biological duplicates. All data can be found in Table S7.

GSK3B, sequence (P49841 35-386): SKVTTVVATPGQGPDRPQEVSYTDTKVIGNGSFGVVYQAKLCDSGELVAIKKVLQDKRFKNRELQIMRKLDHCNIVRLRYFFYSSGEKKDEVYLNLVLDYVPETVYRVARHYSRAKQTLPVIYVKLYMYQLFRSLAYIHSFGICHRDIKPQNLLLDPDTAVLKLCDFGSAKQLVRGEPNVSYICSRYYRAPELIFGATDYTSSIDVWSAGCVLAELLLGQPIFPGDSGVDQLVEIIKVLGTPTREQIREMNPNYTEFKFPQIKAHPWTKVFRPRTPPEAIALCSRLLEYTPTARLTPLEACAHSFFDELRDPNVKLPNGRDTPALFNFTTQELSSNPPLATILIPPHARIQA
T2 sequence (Q00536 163-478): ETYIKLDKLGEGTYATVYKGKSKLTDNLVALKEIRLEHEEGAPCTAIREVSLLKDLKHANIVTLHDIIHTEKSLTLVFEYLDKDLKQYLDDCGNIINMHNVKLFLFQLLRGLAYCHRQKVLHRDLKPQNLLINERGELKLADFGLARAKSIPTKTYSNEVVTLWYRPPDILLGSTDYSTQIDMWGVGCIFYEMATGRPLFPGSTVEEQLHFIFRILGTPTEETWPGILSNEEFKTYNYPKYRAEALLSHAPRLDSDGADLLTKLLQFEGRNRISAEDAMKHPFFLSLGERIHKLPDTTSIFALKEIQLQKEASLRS
T1 sequence (Q00536 whole entry, the tested form may be a part): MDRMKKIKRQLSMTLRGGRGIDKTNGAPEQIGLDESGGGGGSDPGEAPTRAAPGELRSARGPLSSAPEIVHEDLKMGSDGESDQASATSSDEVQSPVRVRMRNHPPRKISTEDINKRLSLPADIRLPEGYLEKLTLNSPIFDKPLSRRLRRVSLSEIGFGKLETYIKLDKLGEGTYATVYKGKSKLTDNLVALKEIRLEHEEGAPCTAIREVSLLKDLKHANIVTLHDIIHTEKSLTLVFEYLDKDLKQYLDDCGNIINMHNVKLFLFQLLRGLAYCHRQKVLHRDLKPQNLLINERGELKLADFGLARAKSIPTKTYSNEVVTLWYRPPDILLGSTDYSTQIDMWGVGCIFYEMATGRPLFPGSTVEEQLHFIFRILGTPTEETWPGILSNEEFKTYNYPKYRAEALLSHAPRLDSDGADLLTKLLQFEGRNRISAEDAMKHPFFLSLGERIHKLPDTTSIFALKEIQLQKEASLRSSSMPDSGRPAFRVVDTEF
T1 sequence (Q8ND76 2-341 partner limits assumed): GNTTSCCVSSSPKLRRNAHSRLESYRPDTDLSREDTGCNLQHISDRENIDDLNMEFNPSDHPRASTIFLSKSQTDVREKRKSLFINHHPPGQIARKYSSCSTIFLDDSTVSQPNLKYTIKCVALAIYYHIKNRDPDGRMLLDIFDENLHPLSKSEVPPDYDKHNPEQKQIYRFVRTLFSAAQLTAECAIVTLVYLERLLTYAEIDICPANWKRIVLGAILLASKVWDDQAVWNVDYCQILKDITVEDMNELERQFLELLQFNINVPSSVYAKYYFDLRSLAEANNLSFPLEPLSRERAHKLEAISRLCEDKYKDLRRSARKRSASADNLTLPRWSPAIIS

EC50 (CDK16/Cyclin Y) [nM]	ΔTm at 10 µM (GSK3B) [°C]	ΔTm at 10 µM (CDK16) [°C]	ΔTm at 10 µM (CDK2) [°C]	SMILES	Kinases with shifts > 5°C [1]	effect on the cell cycle (FUCCI) (HCT116-FUCCI cells)
112 ± 8.6	12.3 ± 0.7	5.3	7.8	COC(=O)c1cc(Nc2ccnc(Nc3ccc(CC#N)cc3)n2)[nH]n1 [21f, methyl 5-((2-((4-(cyanomethyl)phenyl)amino)pyrimidin-4-yl)amino)-1H-pyrazole-3-carboxylate]	27	–
124 ± 10.4	7.2 ± 0.2	6.3 ± 0.3	8.2 ± 0.1	CC(C)(C)OC(=O)NCCc1cccc(Nc2nccc(Nc3cc(C4CC4)n[nH]3)n2)c1 [11b, tert-butyl 3-((4-((3-cyclopropyl-1H-pyrazol-5-yl)amino)pyrimidin-2-yl)amino)phenethyl-carbamate]	–	–
5550 ± 636	9.3 ± 0.1	1.4 ± 0.4	2.7 ± 0.2	CNC(=O)c1cc(Nc2ccnc(Nc3ccc(CC#N)cc3)n2)[nH]n1 [41c, 5-((2-((4-(cyanomethyl)phenyl)amino)pyrimidin-4-yl)amino)-N-methyl-1H-pyrazole-3-carboxamide]	–	–
36 ± 1.2	6.8	8.9 ± 0.3	11.2 ± 0.3	CC(C)(C)OC(=O)NCCCCCCNc1nccc(Nc2cc(C3CC3)n[nH]2)n1 [11e, tert-butyl (6-((4-((3-cyclopropyl-1H-pyrazol-5-yl)amino)pyrimidin-2-yl)amino)hexyl)-carbamate]	–	–
172 ± 20.9	5.7 ± 0.2	6.2 ± 0.1	8.7 ± 0.1	Cc1cnc(Nc2ccc(CCNC(=O)OC(C)(C)C)cc2)nc1Nc1cc(C2CC2)n[nH]1 [12a, tert-butyl 4-((4-((3-cyclopropyl-1H-pyrazol-5-yl)amino)-5-methylpyrimidin-2-yl)amino)-phenethylcarbamate]	–	–
191 ± 5.9	5.8 ± 0.2	6.3	8.1 ± 0.4	Cc1cnc(NCCCCCCNC(=O)OC(C)(C)C)nc1Nc1cc(C2CC2)n[nH]1 [12e, tert-butyl (6-((4-((3-cyclopropyl-1H-pyrazol-5-yl)amino)-5-methylpyrimidin-2-yl)amino)hexyl)carbamate]	–	–
176 ± 3	6.1 ± 0.1	6.5 ± 0.1	7.2 ± 0.2	Cc1cnc(NCCCCCNC(=O)OC(C)(C)C)nc1Nc1cc(C2CC2)n[nH]1 [12c, tert-butyl (5-((4-((3-cyclopropyl-1H-pyrazol-5-yl)amino)-5-methylpyrimidin-2-yl)amino)-pentyl)carbamate]	–	–
33 ± 0.1	7.1 ± 0.2	9.4	10.4 ± 0.3	CC(C)(C)OC(=O)NCCCCCNc1nccc(Nc2cc(C3CC3)[nH]n2)n1 [11c, tert-butyl (5-((4-((3-cyclopropyl-1H-pyrazol-5-yl)amino)pyrimidin-2-yl)amino)pentyl) carbamate]	–	–
–	–	–	–	CNC(=O)c1nn(C)c2c1C(C)(C)Cc1cnc(Nc3ccc(N4CCN(C)CC4)cc3)nc1-2 [Milciclib, reference compound]	–	G1 cell cycle arrest
388 ± 32	10.4 ± 0.1	5.7 ± 0.2	10.7 ± 0.1	Cc1cc(Nc2ccnc(Nc3ccc(CCNC(=O)OC(C)(C)C)cc3)n2)[nH]n1 [38a, tert-butyl 4-((4-((3-methyl-1H-pyrazol-5-yl)amino)pyrimidin-2-yl)amino)phenethyl-carbamate]	–	–
351 ± 34.1	10.4	5.7 ± 0.1	10.7 ± 0.1	CC(C)(C)c1cc(Nc2ccnc(Nc3ccc(CC#N)cc3)n2)[nH]n1 [40c, 2-(4-((4-((3-(tert-butyl)-1H-pyrazol-5-yl)amino)pyrimidin-2-yl)amino)phenyl)acetonitrile]	–	–
400 ± 30.6	10.3 ± 0.1	5.6	5.1	COC(=O)c1cc(Nc2ccnc(NCc3ccc(N)cc3)n2)n[nH]1 [compound 25, methyl 3-((2-((4-aminobenzyl)amino)pyrimidin-4-yl)amino)-1H-pyrazole-5-carboxylate]	–	–

SMILES	EC50 (CDK16/Cyclin Y) [nM]	ΔTm at 10 µM (GSK3B) [°C]	ΔTm at 10 µM (CDK16) [°C]	ΔTm at 10 µM (CDK2) [°C]	Kinases with shifts > 5°C [1]	effect on the cell cycle (FUCCI) (HCT116-FUCCI cells)
CC(C)OC(=O)c1cc(Nc2ccnc(NCCCCCNC(=O)OC(C)(C)C)n2)n[nH]1 [42b, isopropyl 3-((2-((5-((tert-butoxycarbonyl)amino)pentyl)amino)pyrimidin-4-yl)amino)-1H-pyrazole-5-carboxylate]	54 ± 1.8	7.8 ± 0.3	9.1 ± 0.1	6.5	7–10	–
COC(=O)c1cc(Nc2nc(Nc3ccc(CCNC(=O)OC(C)(C)C)cc3)ncc2Cl)[nH]n1 [22a, methyl 5-((2-((4-(2-((tert-butoxycarbonyl)amino)ethyl)phenyl)amino)-5-chloropyrimidin-4-yl)amino)-1H-pyrazole-3-carboxylate]	1860 ± 276	3.3 ± 0.5	0.3 ± 0.1	2 ± 0.3	–	–
COC(=O)c1cc(Nc2ccnc(NCCCCCNC(=O)OC(C)(C)C)n2)[nH]n1 [21c, methyl 5-((2-((5-((tert-butoxycarbonyl)amino)pentyl)amino)pyrimidin-4-yl)amino)-1H-pyrazole-3-carboxylate]	107	8.6	8.5 ± 0.2	5.6	–	–
COC(=O)c1cc(Nc2nc(Nc3cccc(CCNC(=O)OC(C)(C)C)c3)nc3ccccc23)[nH]n1 [23b, methyl 5-((2-((3-(2-((tert-butoxycarbonyl)amino)ethyl)phenyl)amino)quinazolin-4-yl)amino)-1H-pyrazole-3-carboxylate]	6820 ± 280	1.4 ± 0.3	0.2 ± 0.2	0.6	–	–
COC(=O)c1cc(Nc2ccnc(NCc3ccc(CNC(=O)OC(C)(C)C)cc3)n2)[nH]n1 [21g, methyl 5-((2-((4-(((tert-butoxycarbonyl)amino)methyl)benzyl)amino)pyrimidin-4-yl)amino)-1H-pyrazole-3-carboxylate]	879 ± 5.5	7.7 ± 0.1	5.3 ± 0.1	3.3 ± 0.1	–	–
